Measurements published in patent publication US8192962B2, “Processes for detecting toxic substances” (Daikin Industries, Ltd., priority 2001, dated 2012).

Tested on: Energy system protein genes
Test: DNA chip mRNA expression in yeast, energy system protein genes (Table 4)
Type: cell-based, Saccharomyces cerevisiae S288C
Summary of the method: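 S. cerevisiae S288C grown at 25° C in YPD were exposed in log phase for two hours to one toxic chemical at a growth-inhibiting, non-lethal concentration; untreated cells served as control. Poly(A) mRNA was reverse-transcribed with Cy3/Cy5-dUTP and hybridized to a whole-genome yeast DNA chip at 65° C for over 12 hours; values are fluorescence ratios versus untreated.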

manganese ethylenebis(dithiocarbamate) [(8)]
The level of expressed mRNA in the presence of chemical substance/The level of expressed mRNA in the absence of chemical substance (yeast gene YJR048W): 0.9
The level of expressed mRNA in the presence of chemical substance/The level of expressed mRNA in the absence of chemical substance (yeast gene YJR121W, cells incubated two hours with the chemical substance): 0.7
The level of expressed mRNA in the presence of chemical substance/The level of expressed mRNA in the absence of chemical substance (yeast gene YJR155W): 10.6
The level of expressed mRNA in the presence of chemical substance/The level of expressed mRNA in the absence of chemical substance (yeast gene YKL016C, cells incubated two hours with the chemical substance): 1.6
The level of expressed mRNA in the presence of chemical substance/The level of expressed mRNA in the absence of chemical substance (yeast gene YKL060C, cells incubated two hours with the chemical substance): 1.1
The level of expressed mRNA in the presence of chemical substance/The level of expressed mRNA in the absence of chemical substance (yeast gene YKL141W, cells incubated two hours with the chemical substance): 0.8
The level of expressed mRNA in the presence of chemical substance/The level of expressed mRNA in the absence of chemical substance (yeast gene YKL148C, cells incubated two hours with the chemical substance): 0.8
The level of expressed mRNA in the presence of chemical substance/The level of expressed mRNA in the absence of chemical substance (yeast gene YKR009C, cells incubated two hours with the chemical substance): 0.9
The level of expressed mRNA in the presence of chemical substance/The level of expressed mRNA in the absence of chemical substance (yeast gene YKR058W, cells incubated two hours with the chemical substance, 25° C., YPD medium): 1.5
The level of expressed mRNA in the presence of chemical substance/The level of expressed mRNA in the absence of chemical substance (yeast gene YKR097W): 2.5
The level of expressed mRNA in the presence of chemical substance/The level of expressed mRNA in the absence of chemical substance (yeast gene YLL041C, cells incubated two hours with the chemical substance): 0.8
The level of expressed mRNA in the presence of chemical substance/The level of expressed mRNA in the absence of chemical substance (yeast gene YLR038C, cells incubated two hours with the chemical substance): 1.4
The level of expressed mRNA in the presence of chemical substance/The level of expressed mRNA in the absence of chemical substance (yeast gene YLR044C, cells incubated two hours with the chemical substance): 0.7
The level of expressed mRNA in the presence of chemical substance/The level of expressed mRNA in the absence of chemical substance (yeast gene YLR134W, cells incubated two hours with the chemical substance): 0.8
The level of expressed mRNA in the presence of chemical substance/The level of expressed mRNA in the absence of chemical substance (yeast gene YLR258W, cells incubated two hours with the chemical substance): 0.9
The level of expressed mRNA in the presence of chemical substance/The level of expressed mRNA in the absence of chemical substance (yeast gene YLR284C, cells incubated two hours with the chemical substance): 1.2
The level of expressed mRNA in the presence of chemical substance/The level of expressed mRNA in the absence of chemical substance (yeast gene YLR295C, cells incubated two hours with the chemical substance, 25° C., YPD medium): 1.2
The level of expressed mRNA in the presence of chemical substance/The level of expressed mRNA in the absence of chemical substance (yeast gene YLR304C, cells incubated two hours with the chemical substance): 0.6
The level of expressed mRNA in the presence of chemical substance/The level of expressed mRNA in the absence of chemical substance (yeast gene YLR345W): 1.4
The level of expressed mRNA in the presence of chemical substance/The level of expressed mRNA in the absence of chemical substance (yeast gene YLR354C, cells incubated two hours with the chemical substance): 1.4
The level of expressed mRNA in the presence of chemical substance/The level of expressed mRNA in the absence of chemical substance (yeast gene YLR377C, cells incubated two hours with the chemical substance): 0.7
The level of expressed mRNA in the presence of chemical substance/The level of expressed mRNA in the absence of chemical substance (yeast gene YLR395C, cells incubated two hours with the chemical substance): 1.0
The level of expressed mRNA in the presence of chemical substance/The level of expressed mRNA in the absence of chemical substance (yeast gene YML087C): 1.3
The level of expressed mRNA in the presence of chemical substance/The level of expressed mRNA in the absence of chemical substance (yeast gene YML120C, cells incubated two hours with the chemical substance): 0.9
The level of expressed mRNA in the presence of chemical substance/The level of expressed mRNA in the absence of chemical substance (yeast gene YML129C, cells incubated two hours with the chemical substance): 1.2
The level of expressed mRNA in the presence of chemical substance/The level of expressed mRNA in the absence of chemical substance (yeast gene YMR073C, cells incubated two hours with the chemical substance): 1.1
The level of expressed mRNA in the presence of chemical substance/The level of expressed mRNA in the absence of chemical substance (yeast gene YMR118C): 1.0
The level of expressed mRNA in the presence of chemical substance/The level of expressed mRNA in the absence of chemical substance (yeast gene YMR205C, cells incubated two hours with the chemical substance): 0.7
The level of expressed mRNA in the presence of chemical substance/The level of expressed mRNA in the absence of chemical substance (yeast gene YMR261C, cells incubated two hours with the chemical substance): 0.7
The level of expressed mRNA in the presence of chemical substance/The level of expressed mRNA in the absence of chemical substance (yeast gene YMR267W, cells incubated two hours with the chemical substance, 25° C., YPD medium): 1.5
The level of expressed mRNA in the presence of chemical substance/The level of expressed mRNA in the absence of chemical substance (yeast gene YMR323W, cells incubated two hours with the chemical substance): 0.8
The level of expressed mRNA in the presence of chemical substance/The level of expressed mRNA in the absence of chemical substance (yeast gene YNL071W): 0.9
The level of expressed mRNA in the presence of chemical substance/The level of expressed mRNA in the absence of chemical substance (yeast gene YNL202W, cells incubated two hours with the chemical substance): 1.2
The level of expressed mRNA in the presence of chemical substance/The level of expressed mRNA in the absence of chemical substance (yeast gene YNL241C): 0.9
The level of expressed mRNA in the presence of chemical substance/The level of expressed mRNA in the absence of chemical substance (yeast gene YNL331C): 13.1
The level of expressed mRNA in the presence of chemical substance/The level of expressed mRNA in the absence of chemical substance (yeast gene YOL086C, cells incubated two hours with the chemical substance): 0.8
The level of expressed mRNA in the presence of chemical substance/The level of expressed mRNA in the absence of chemical substance (yeast gene YOL165C): 17.8
The level of expressed mRNA in the presence of chemical substance/The level of expressed mRNA in the absence of chemical substance (yeast gene YOR142W, cells incubated two hours with the chemical substance): 0.8
The level of expressed mRNA in the presence of chemical substance/The level of expressed mRNA in the absence of chemical substance (yeast gene YOR178C, cells incubated two hours with the chemical substance): 0.9
The level of expressed mRNA in the presence of chemical substance/The level of expressed mRNA in the absence of chemical substance (yeast gene YOR388C, cells incubated two hours with the chemical substance): 0.7
The level of expressed mRNA in the presence of chemical substance/The level of expressed mRNA in the absence of chemical substance (yeast gene YPL031C, cells incubated two hours with the chemical substance): 1.0
The level of expressed mRNA in the presence of chemical substance/The level of expressed mRNA in the absence of chemical substance (yeast gene YPL061W, cells incubated two hours with the chemical substance): 0.8
The level of expressed mRNA in the presence of chemical substance/The level of expressed mRNA in the absence of chemical substance (yeast gene YPL088W): 1.9
The level of expressed mRNA in the presence of chemical substance/The level of expressed mRNA in the absence of chemical substance (yeast gene YPL171C): 20.5
The level of expressed mRNA in the presence of chemical substance/The level of expressed mRNA in the absence of chemical substance (yeast gene YPL240C): 1.2
The level of expressed mRNA in the presence of chemical substance/The level of expressed mRNA in the absence of chemical substance (yeast gene YPL262W, cells incubated two hours with the chemical substance): 1.0
The level of expressed mRNA in the presence of chemical substance/The level of expressed mRNA in the absence of chemical substance (yeast gene YPL275W, cells incubated two hours with the chemical substance): 1.0
The level of expressed mRNA in the presence of chemical substance/The level of expressed mRNA in the absence of chemical substance (yeast gene YPL276W, cells incubated two hours with the chemical substance): 0.9
The level of expressed mRNA in the presence of chemical substance/The level of expressed mRNA in the absence of chemical substance (yeast gene YPR048W, cells incubated two hours with the chemical substance): 1.5
The level of expressed mRNA in the presence of chemical substance/The level of expressed mRNA in the absence of chemical substance (yeast gene YPR184W, cells incubated two hours with the chemical substance): 0.7
